# Test results taken from patent publication US8703951B2, “Synthesis of 4H-benzo[D]pyrrolo[1,2-A]thiazoles and indolizino[6,7-b]indole derivatives and their use as antitumor therapeutic agents” (Academia Sinica, priority 2011, dated 2014).
# Read-outs that look alike come from different tables or passages of the source.
# Tests used:
# [1] = system: human lymphoblastic leukemia (CCRF-CEM); test: In vitro cytotoxicity, XTT assay, CCRF-CEM; type: cell-based
# From the text: (§1) Human colon carcinoma HCT-116 cells and human prostate adenocarcinoma PC-3 cells were obtained from American Type Culture Collection (ATCC, Rockville, Md.). Human mammary carcinoma (MX-1) tumor cells were obtained from MSKCC cell bank. The CCRF-CEM human lymphoblastic leukemia cells and their vinblastine resistant subline (CCRF-CEM/VBL, 680-fold resistance in vitro) were obtained from Dr. William Beck of the University of Illinois, Chicago, and CCRF-CEM/Taxol (330-fold resistance in vitro). Resistant cells CCRF-CEM/taxol were produced by exposing the parent cells to increasing sublethal concentration (IC50-IC90) of paclitaxel for six months.
# (§2) In preparation for in vitro cytotoxicity assays, cells were cultured at an initial density 2−5×10^4 cells per milliliter. They were maintained in a 5% CO2-humidified atmosphere at 37° C. in RPMI medium 1640 (GIBCO/BRL) containing penicillin (100 units/mL), streptomycin (100 μg/mL, GIBCO/BRL), and 5% heat-inactivated FBS. For cells grown in suspension (such as CCRF-CEM and its sublines), cytotoxicity was measured, by using XTT microculture method^23 in 96-well microtiter plates.
# (§3) The cytotoxic effects of the newly synthesized compounds were determined in T-cell acute lymphocytic leukemia (CCRF-CEM) and their resistant subcell lines (CCRF-CEM/Taxol and CCRF-CEM/VBL) by the XTT assay^24 and human solid tumor cells (i.e. breast carcinoma MX-1 and colon carcinoma HCT-116) by the SRB assay^25 in a 72 h incubation using a microplate spectrophotometer as described previously.^25 After the addition of phenazine methosulfate-XTT solution, incubated at 37° C. for 6 h and absorbance at 450 and 630 nm was detected on a microplate reader (EL 340). The cytotoxicity of the newly synthesized compounds against non-small cell lung carcinoma H1299, prostate cancer PC3, oral cancer OECM-1 and glioma U87 were determined by the Alamar blue assay^26 in a 72 h incubation using a microplate spectrophotometer as described previously. After the addition of alamar blue solution, it was incubated at 37° C. for 6 h. Absorbance at 570 and 600 nm was detected on a microplate reader. IC50 values were determined from dose-effect relationship at six or seven concentrations of each drug using the CompuSyn software by Chou and Martin^27 based on the median-effect principle and plot.^28,29 Ranges given for Cisplatin were mean±SE (n=4).
# breast carcinoma MX-1 = test: In vitro cytotoxicity, SRB assay, MX-1; type: cell-based, human
# From the text: as §1, §2, §3
# colon carcinoma HCT-116 = test: In vitro cytotoxicity, SRB assay, HCT-116; type: cell-based, human
# From the text: as §1, §2, §3
# CCRF-CEM/Taxol = test: In vitro cytotoxicity, XTT assay, CCRF-CEM/Taxol; type: cell-based, human; conditions: Table 5; for IC50: Taxol-resistant subline, XTT, 72 h, read-out: Cell Growth inhibition (IC50 μM) CCRF-CEM/Taxol; for fold of cross-resistant vs IC50 of the parent cell line, CCRF-CEM/Taxol: number in brackets
# From the text: as §1, §2, §3
# CCRF-CEM/VBL = test: In vitro cytotoxicity, XTT assay, CCRF-CEM/VBL; type: cell-based, human; conditions: Table 5; for IC50: vinblastine-resistant subline, XTT, 72 h, read-out: Cell Growth inhibition (IC50 μM) CCRF-CEM/VBL; for fold of cross-resistant vs IC50 of the parent cell line, CCRF-CEM/VBL: number in brackets
# From the text: as §1, §2, §3
# [2] = system: non-small cell lung carcinoma H1299; test: In vitro cytotoxicity, Alamar blue assay, H1299; type: cell-based, human
# Experimental: (§4) Prostate cancer PC3, non-small cell lung carcinoma cells H1299, and human glioma cells U87 were purchased from the American Type Culture Collection (Rockville, Md.). OECM-1 (human gingival squamous cell carcinoma cells) was obtained from Dr C.-L. Meng (National Defense Medical College, Taiwan).^22
# as §2, §3
# prostate cancer PC3 = test: In vitro cytotoxicity, Alamar blue assay, PC3; type: cell-based, human; conditions: Table 6, 72 h
# Experimental: as §4, §2, §3
# oral cancer OECM-1 = test: In vitro cytotoxicity, Alamar blue assay, OECM-1; type: cell-based, human
# Experimental: as §4, §2, §3
# glioma U87 = test: In vitro cytotoxicity, Alamar blue assay, U87; type: cell-based, human
# Experimental: as §4, §2, §3
# linearized pBR322DNA = test: DNA cross-linking, alkaline agarose gel shift assay; type: biochemical; conditions: 1, 10, and 20 μM; FIG. 8
# Experimental: Formation of DNA cross-linking was analyzed by alkaline agarose gel electrophoresis assay. […] The reaction mixture was incubated at 37° C. for 2 h. At the end of reaction, the plasmid DNA was linearized by digestion with BamHI and followed by precipitation with ethanol. The DNA pellets were dissolved and denatured in alkaline buffer (0.5 N NaOH-10 mM EDTA). An aliquot of 20 μL of DNA solution (1000 ng) was mixed with 4 μL of 6× alkaline loading dye and then electrophoretically resolved on a 0.8% alkaline agarose gel with NaOH-EDTA buffer at 4° C. The electrophoresis was carried out at 18 V for 22 h. After staining the gels with an ethidium bromide solution, the DNA was then visualized under UV light.
# [3] = system: MX-1 human mammary xenograft; test: Therapeutic efficacy in nude mice bearing MX-1 xenograft; type: in vivo
# Experimental: Athymic nude mice bearing the nu/nu gene were obtained from NCI, Frederick, Md. and used for all human tumor xenografts. Male nude mice, 6 weeks or older, weighing 20-24 g or more were used. Compounds were administered via the tail vein for i.v. injection or infusion as described previously.^26 A typical formulation for chemotherapeutic studies for each drug was dissolved in DSMO to make a 25 mg/ml fresh solution, 0.4 ml of this solution was mixed with 0.3 ml of Tween 80, plus 1.3 ml to make 2 ml of 5 mg/ml solution. Bolus injection volume was 0.1-0.2 ml per mouse. Tumor volume was assessed by measuring length×width×height (or width) by using a caliper. For tumor-bearing nude mice during the course of the experiment, the body weight refers to total weight minus the weight of the tumor. All animal studies were conducted in accordance with the guidelines for the National Institute of Health Guide for the Care and Use of Animals and the protocol approved by the Institutional Animal Care and Use Committee.
# [4] = Homo sapiens, CCRF-CEM, Table 7, 72 h, read-out: IC50 (μM) CCRF/CEM
# [5] = Homo sapiens, HCT-116, Table 7, 72 h
# [6] = Homo sapiens, CCRF-CEM, Table 5, 72 h incubation, read-out: Cell Growth inhibition (IC50 μM) CCRF-CEM
# [7] = Homo sapiens, NCI-H1299, Table 6, 72 h
# [8] = Homo sapiens, OECM1, Table 6, 72 h
# [9] = Table 5, 72 h incubation, read-out: Cell Growth inhibition (IC50 μM) CCRF-CEM
melting point [°C],Structure (SMILES),"fold of cross-resistant vs IC50 of the parent cell line, CCRF-CEM/Taxol (CCRF-CEM/Taxol) [×]","fold of cross-resistant vs IC50 of the parent cell line, CCRF-CEM/VBL (CCRF-CEM/VBL) [×]",DNA interstrand cross-linking (linearized pBR322DNA),"IC50 [1, 9] [µM]",IC50 (CCRF-CEM/Taxol) [µM],IC50 (CCRF-CEM/VBL) [µM],"IC50 ([2]; Table 6, 72 h) [µM]",IC50 (prostate cancer PC3) [µM],"IC50 (oral cancer OECM-1; Table 6, 72 h) [µM]","IC50 (glioma U87; Table 6, 72 h) [µM]",further results
238 to 239,"Cn1c2c(c3ccccc31)Cc1c(CO)c(CO)c(-c3ccc(Cl)cc3)n1C2 [Compound 26d, (3-(4-Chlorophenyl)-6-methyl-6,11-dihydro-5H-indolizino[6,7-b]indole-1,2-diyl)-dimethanol]",–,–,–,–,–,–,–,–,–,–,"IC50 [1, 4]: 4.58 ± 0.378 µM; IC50 (breast carcinoma MX-1; Homo sapiens, Table 7, 72 h): 11.3 ± 0.42 µM; IC50 (colon carcinoma HCT-116; [5]): 13.49 ± 0.088 µM"
–,"COc1ccc(-c2c(CO)c(CO)c3sc4ccccc4n23)cc1 [Compound 18g, (1-(4-Methoxyphenyl)benzo[d]pyrrolo[2,1-b]thiazole-2,3-diyl)dimethanol]",1.9,2.30,able to bind covalently (interstrand cross-linking) with DNA,–,–,–,–,–,–,–,"IC50 [1, 6]: 1.13 ± 0.09 µM; IC50 (CCRF-CEM/Taxol; Homo sapiens, CCRF-CEM): 2.17 ± 0.02 µM; IC50 (CCRF-CEM/VBL; Homo sapiens, CCRF-CEM): 2.63 ± 0.031 µM; IC50 [2, 7]: 9.94 ± 1.87 µM; IC50 (prostate cancer PC3; Homo sapiens): 8.81 ± 1.2 µM; IC50 (oral cancer OECM-1; [8]): 5 ± 0.78 µM; IC50 (glioma U87; Homo sapiens, Table 6, 72 h): 18.1 ± 3.71 µM"
200 to 201,"Cc1c(CO)c(CO)c2n1Cc1c(c3ccccc3n1C)C2 [Compound 33a, [3,6-Dimethyl-6,11-dihydro-5H-indolizino[6,7-b]indole-1,2-diyl]dimethanol]",–,–,–,–,–,–,–,–,–,–,"IC50 [1, 4]: 0.042 ± 0.0003 µM; IC50 (breast carcinoma MX-1; Homo sapiens, Table 7, 72 h): 0.22 ± 0.019 µM; IC50 (colon carcinoma HCT-116; [5]): 0.12 ± 0.001 µM; IC50 ([2]; Homo sapiens, NCI-H1299, Table 7, 72 h): 3.96 ± 1.79 µM; IC50 (glioma U87; Homo sapiens, Table 7, 72 h): 6.54 ± 2.16 µM"
–,"CC(C)NC(=O)OCc1c(COC(=O)NC(C)C)c2n(c1-c1ccc(F)cc1)CC(C)c1c-2[nH]c2ccccc12 (centres unmarked) [Compound 28c, [3-(4-Fluorophenyl)-6-methyl-6,11-dihydro-5H-indolizino[6,7-b]indole-1,2-diyl]bis(methylene) (isopropylcarbamate)]",–,–,–,–,–,–,–,–,–,–,"IC50 ([1]; Table 7, 72 h, read-out: IC50 (μM) CCRF/CEM): 0.106 ± 0.004 µM; IC50 ([2]; Table 7, 72 h): 16.9 ± 2.69 µM; IC50 (oral cancer OECM-1; Table 7, 72 h, read-out: IC50 (μM) OECM1): 6.56 ± 1.15 µM; complete tumor remission (CR) ([3]; FIG. 6, i.v. inj., n=4): CR was achieved"
–,"CCNC(=O)OCc1c(COC(=O)NCC)c2sc3ccccc3n2c1-c1ccc(Cl)cc1 [Compound 19c, (1-(4-Chlorophenyl)benzo[d]pyrrolo[2,1-b]thiazole-2,3-diyl)bis(methylene)bis(ethylcarbamate)]",1.52,1.85,able to bind covalently (interstrand cross-linking) with DNA,0.21 ± 0.01,0.32 ± 0.003,0.39 ± 0.012,4.33 ± 0.45,13.8 ± 3.78,11.6 ± 2.84,26 ± 2.27,"IC50 (breast carcinoma MX-1; Table 6, 72 h): 0.91 ± 0.01 µM; IC50 (colon carcinoma HCT-116; Table 6, 72 h): 0.7 ± 0.008 µM"
–,"OCc1c(CO)c2sc3ccccc3n2c1-c1ccc(Cl)cc1 [Compound 18c, (1-(4-Chlorophenyl)benzo[d]pyrrolo[2,1-b]thiazole-2,3-diyl)dimethanol]",2.00,1.56,able to bind covalently (interstrand cross-linking) with DNA,–,–,–,–,–,–,–,"IC50 [1, 6]: 2.61 ± 0.03 µM; IC50 (CCRF-CEM/Taxol; Homo sapiens, CCRF-CEM): 5.22 ± 0.026 µM; IC50 (CCRF-CEM/VBL; Homo sapiens, CCRF-CEM): 4.09 ± 0.025 µM; IC50 (breast carcinoma MX-1; Homo sapiens, Table 6, 72 h): 10.4 ± 0.003 µM; IC50 (colon carcinoma HCT-116; Homo sapiens, HCT-116, Table 6, 72 h): 9.26 ± 0.049 µM; IC50 [2, 7]: 12.4 ± 0.44 µM; IC50 (prostate cancer PC3; Homo sapiens): 20.4 ± 3.43 µM; IC50 (oral cancer OECM-1; [8]): 14.6 ± 1.13 µM; IC50 (glioma U87; Homo sapiens, Table 6, 72 h): 20.7 ± 2.26 µM"
–,"CC(C)NC(=O)OCc1c(-c2ccc(F)cc2)c2sc3ccccc3n2c1COC(=O)NC(C)C [Compound 20b, (1-(4-Fluorophenyl)benzo[d]pyrrolo[2,1-b]thiazole-2,3-diyl)bis(methylene)bis(iso-propylcarbamate)]",3.20,3.80,–,0.05 ± 0.001,0.16 ± 0.007,0.19 ± 0.003,33 ± 3.2,24.2 ± 4.17,11.9 ± 2.9,53.5 ± 9.97,"IC50 (breast carcinoma MX-1; Table 6, 72 h): 0.62 ± 0.014 µM; IC50 (colon carcinoma HCT-116; Table 6, 72 h): 0.35 ± 0.01 µM; complete tumor remission (CR), mice ([3]; 20 mg/kg, Q2Dx3 and then 25 mg/kg, Q2D×4, iv. inj., on D26 and 28): two out of three"
215 to 216,"COc1ccc(-c2c(CO)c(CO)c3sc4ccccc4n23)cc1OC [Compound 18h, (1-(3,4-Dimethoxyphenyl)benzo[d]pyrrolo[2,1-b]thiazole-2,3-diyl)dimethanol]",–,–,–,–,–,–,–,–,–,–,–
159 to 160,"OCc1c(CO)c2sc3ccccc3n2c1-c1ccc(Cl)c(Cl)c1 [Compound 18e, (1-(3,4-Dichlorophenyl)benzo[d]pyrrolo[2,1-b]thiazole-2,3-diyl)dimethanol]",–,–,–,–,–,–,–,–,–,–,–
–,"CCNC(=O)OCc1c(COC(=O)NCC)c2sc3ccccc3n2c1-c1ccc(OC)cc1 [Compound 19g, (1-(4-Methoxyphenyl)benzo[d]pyrrolo[2,1-b]thiazole-2,3-diyl)bis(methylene)bis(ethylcarbamate)]",1.90,2.20,able to bind covalently (interstrand cross-linking) with DNA,0.19 ± 0.002,0.37 ± 0.001,0.42 ± 0.003,8.85 ± 1.53,17.9 ± 3.59,9.39 ± 1.9,29.5 ± 4.86,–
–,"COc1ccc(-c2c(COC(=O)NC(C)C)c(COC(=O)NC(C)C)c3sc4ccccc4n23)cc1 [Compound 20g, (1-(4-Methoxyphenyl)benzo[d]pyrrolo[2,1-b]thiazole-2,3-diyl)bis(methylene)bis(iso-propylcarbamate)]",1.17,1.47,able to bind covalently (interstrand cross-linking) with DNA,0.14 ± 0.002,0.17 ± 0.004,0.25 ± 0.008,8.19 ± 1.74,17.5 ± 0.8,7.23 ± 1.57,60.9 ± 13.4,–
122 to 123,"Cn1c2c(c3ccccc31)Cc1c(CO)c(CO)c(-c3ccccc3)n1C2 [Compound 26b, (3-(phenyl)-6-methyl-6,11-dihydro-5H-indolizino[6,7-b]indole-1,2-diyl)dimethanol]",–,–,–,–,–,–,–,–,–,–,–
